Laboratory results reported in patent publication US10774046B2, “Inhibitors for the treatment of cancer and related methods” (UNIVERSITY OF LOUISVILLE RESEARCH FOUNDATION, INC., priority 2017, dated 2020).

Legend:
[1] = biological target: human recombinant PFKFB4 (Homo sapiens, UniProt Q16877); experiment: ADP-Glo kinase assay; format: biochemical
Experimental: The fructose-6-phosphate kinase activity of human recombinant PFKFB4 in the presence of DMSO±indicated 5MPN concentrations was assayed as previously described. The activity of 5MPN against 97 kinases was examined using a commercially available active-site dependent competition binding assay core service (KINOMEscanEDGE) that quantifies the capacity of test agents to compete with an immobilized, active-site directed ligand using a DNA-tagged kinase and immobilized ligand and compound. For example, enzyme inhibition was studied using an ADP-Glo assay. The effect of MPN-2 on the activity of recombinant human PFKFB4 enzyme was examined in an ADP-Glo assay (Promega), which measures ADP formed from a kinase reaction. ADP is converted into ATP, which is converted into light by a luciferase. PFKFB4 protein was exposed to MPN-2 at indicated concentrations in the presence of ATP and fructose-6-phosphate and following manufacturer's instructions, ADP-Glo and kinase detections reagents were added. The data are shown as the decrease in luminescence caused by MPN-2 relative to DMSO.
Method: The efficacy of Formula (VIII) in inhibition of the kinase activity of the PFKFB4 enzyme was examined by exposing recombinant human PFKFB4 protein to Formula (VIII) in the ADP-Glo kinase assay (Promega) which measures ADP formed through a kinase reaction. Briefly, recombinant protein, ATP, substrate and Formula (VIII) were incubated together for the kinase reaction followed by the addition of ADP-Glo reagent, used to terminate the kinase reaction. Lastly, a kinase detection reagent was added to convert the newly formed ADP to ATP which was measured by a luciferase reaction. Data are shown in FIG. 10 as the decrease in luminescence caused by Formula (VIII) relative to DMSO.
Method: The efficacy of FB4-32 and FB4-35 in inhibition of the kinase activity of the PFKFB4 enzyme was examined by exposing recombinant human PFKFB4 protein to FB4-32 and FB4-35 in the ADP-Glo kinase assay (Promega) which measures ADP formed through a kinase reaction. Briefly, recombinant protein, ATP, substrate and FB4-32 or FB4-35 were incubated together for the kinase reaction followed by the addition of ADP-Glo reagent to terminate the kinase reaction. Last, a kinase detection reagent was added to convert the newly formed ADP to ATP which was measured by a luciferase reaction. Data are shown as the decrease in luminescence caused by FB4-32 and FB4-35 relative to DMSO.

[2] = system: H460 cells; experiment: F2,6BP measurement in cells (coupled enzyme reaction); format: cell-based, human
Experimental: Cells or tissues were prepared as previously described and F2,6BP content measured using a coupled enzyme reaction following a modification of the method of Van Schaftingen et al (VAN SCHAFTINGEN E et al. “A kinetic study of pyrophosphate:fructose-6-phosphate phosphotransferase from potato tubers. Application to a microassay of fructose 2,6-bisphosphate” Eur J Biochem (1982) Vol. 129, No. 1, pp. 191-195) and normalized to total cellular protein measured by the bicinchoninic acid assay (BCA, Thermo Scientific). For example, H460 cells were exposed to the indicated concentrations of MPN-2. In order to measure F2,6BP, cells were harvested, washed with PBS, lysed in NaOH/Tris acetate by heating at 80° C. and lysates neutralized to pH 7.2. F2,6BP content was measured using a coupled enzyme reaction following a modified method of Van Schaftingen et al (VAN SCHAFTINGEN E et al. “A kinetic study of pyrophosphate:fructose-6-phosphate phosphotransferase from potato tubers. Application to a microassay of fructose 2,6-bisphosphate” Eur J Biochem (1982) Vol. 129, No. 1, pp. 191-195). The F2,6BP concentration was normalized to total cellular protein measured by the bicinchoninic acid assay (BCA, Thermo Scientific). All data are expressed as the mean±SD of three experiments. Statistical significance was assessed by the two-sample t test (independent variable).
Method: In order to measure F26BP, H460 cells were exposed to increasing concentrations of the agents and were harvested, washed with PBS, lysed in NaOH/Tris acetate by heating at 80° C. and lysates neutralized to pH 7.2. F26BP content was measured using a coupled enzyme reaction following a modified method of Van Schaftingen et al. (Eur J Biochem. 1982; 129(1):191-195). The F26BP concentration was normalized to total cellular protein measured by the bicinchoninic acid assay (BCA, Thermo Scientific).

[3] = system: PFKFB4-/- lung fibroblasts; experiment: cell counts of tamoxifen-inducible PFKFB4-/- fibroblasts; format: cell-based, mouse; conditions: 4HT-induced deletion, 10 μM 5MPN, 24 hours
Source text: H460, H1299, H441, H522 and A549 non-small cell lung cancer (NSCLC), MDA-MB-231 (breast), LNCaP (prostatic) and HCT116 (colon) adenocarcinoma and Lewis lung carcinoma (LLC) cell lines were obtained from ATCC and used within 6 months of acquisition. PFKFB4^−/− ear pinna fibroblasts isolated from TamCre/loxP/PFKFB4^−/− mice were immortalized as described previously (Chesney J et al. Fructose-2,6-bisphosphate synthesis by 6-phosphofructo-2-kinase/fructose-2,6-bisphosphatase 4 (PFKFB4) is required for the glycolytic response to hypoxia and tumor growth. Oncotarget 2014 Aug. 30; 5(16):6670-86). Normal bronchial epithelial cells (NHBE) were obtained from Lonza and NHBE cells expressing telomerase, SV40 large T antigen and activated Ras (hT/LT/Ras) were a gift from Dr. B. J. Rollins, Dana Farber Cancer Institute. All cell lines were tested and found negative for mycoplasma (PCR Mycoplasma Detection Kit, ABM). Cell lines were grown in DMEM (A549, LNCaP, MDA-MB-231, LLC and PFKFB4^−/−), RPMI 1640 (H460, H1299, H441, H522) and McCoy's 5A media (HCT116) (all from Invitrogen) containing 10% fetal calf serum (Hyclone). […]
Cells were incubated in 20% trypan blue (Sigma) for 5 minutes. Cells excluding trypan blue were counted using a standard hemocytometer (Hausser Scientific) to determine total numbers of viable cells. Data are expressed as mean±SD of three experiments.

Sequence of human recombinant PFKFB4 (Q16877 whole entry): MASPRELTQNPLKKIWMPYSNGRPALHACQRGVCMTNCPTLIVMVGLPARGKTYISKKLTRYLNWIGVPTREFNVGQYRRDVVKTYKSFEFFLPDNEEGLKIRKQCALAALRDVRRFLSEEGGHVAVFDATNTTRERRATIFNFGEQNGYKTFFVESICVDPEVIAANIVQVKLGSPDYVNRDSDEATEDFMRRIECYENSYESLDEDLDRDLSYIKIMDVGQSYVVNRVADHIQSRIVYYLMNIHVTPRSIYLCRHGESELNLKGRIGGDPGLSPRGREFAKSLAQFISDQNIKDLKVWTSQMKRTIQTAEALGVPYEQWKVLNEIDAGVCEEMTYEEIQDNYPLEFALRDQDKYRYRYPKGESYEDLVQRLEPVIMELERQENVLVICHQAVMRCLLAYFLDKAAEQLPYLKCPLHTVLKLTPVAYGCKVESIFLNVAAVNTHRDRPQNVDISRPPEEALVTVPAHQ

## 5-[(8-methoxy-2-methylquinolin-1-ium-4-yl)amino]pentyl nitrate [MPN-2]
[1]
  kinase activity of the PFKFB4 enzyme (luminescence relative to DMSO): inhibited
[2]; H460, indicated concentrations of MPN-2
  F2,6BP production: inhibited

## COc1cccc2c(NCCCCCO[N+](=O)[O-])ccnc12 [5MPN, 5-[(8-methoxyquinolin-4-yl)amino]pentyl nitrate]
[2]; H460, 10 μM 5MPN, 6-72 hours
  intracellular concentration of F2,6BP: reduced
[2]; H460 transfected with PFKFB4, 10 μM 5MPN, 24 hours
  effect of overexpression of PFKFB4 on reduction in F2,6BP: reversed
[3]
  effect of genomic deletion of Pfkfb4 on anti-proliferative effect: sensitized

## COc1cccc2c(NCCCCCNC(=O)C(F)(F)F)ccnc12 [Formula (VIII), 2,2,2-trifluoro-N-(5-((8-methoxyquinolin-4-yl)amino)pentyl)acetamide]
[1]
  kinase activity of the PFKFB4 enzyme (luminescence relative to DMSO): inhibited
